{"source": "paper PMC4501872", "about": "(The Journal of steroid biochemistry and molecular biology, 2015)", "key": {"human SULT2A1": {"biological_target": "T1, human SULT2A1 (Homo sapiens, UniProt Q06520)", "T1 sequence (Q06520 1-285)": "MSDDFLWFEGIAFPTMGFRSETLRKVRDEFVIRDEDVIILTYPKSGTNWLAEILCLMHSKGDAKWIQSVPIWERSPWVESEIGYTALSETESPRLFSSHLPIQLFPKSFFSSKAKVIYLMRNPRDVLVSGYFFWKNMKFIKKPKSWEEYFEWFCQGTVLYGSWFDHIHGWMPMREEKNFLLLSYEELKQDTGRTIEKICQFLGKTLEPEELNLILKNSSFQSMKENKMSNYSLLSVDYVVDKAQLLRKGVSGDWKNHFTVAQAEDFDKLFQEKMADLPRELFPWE", "type": "biochemical", "details": "for rate of 3-sulfate formation in the absence of celecoxib: 2 μM 35S-PAPS for 6D-E2, 20 μM PAPS for the others; for rate of 17-sulfate formation in the absence of celecoxib: 2 μM 35S-PAPS for 6D-E2, 20 μM PAPS for 17β-Eqn; for SULT2A1 enzyme activity toward the substrate: control activity"}, "[1]": {"details": "calculated, following a therapeutic dose of 200 mg; cited from earlier work"}, "[2]": {"details": "No celecoxib, 0.16 μM E2, PAPS 20 μM"}, "[3]": {"details": "No celecoxib, 0.4 μM E2, PAPS 20 μM"}, "[4]": {"details": "Celecoxib (50 μM) added after PAPS (20 μM), 0.16 μM E2"}, "[5]": {"details": "Celecoxib (50 μM) added after PAPS (20 μM), 0.4 μM E2"}, "[6]": {"details": "Celecoxib (50 μM) added before PAPS (20 μM), 0.16 μM E2"}, "[7]": {"details": "Celecoxib (50 μM) added before PAPS (20 μM), 0.4 μM E2"}}, "note": "Like-named read-outs stand apart in the source and are kept apart here."}
{"compound": "C[C@]12CC[C@@H]3c4cc(O)c(O)cc4CC[C@H]3[C@@H]1CC[C@@H]2O", "note": "[2-OH-E2, 2-hydroxyestradiol]", "values": [{"measurement": "rate of 3-sulfate formation in the absence of celecoxib", "setting": "human SULT2A1; 0.4 μM substrate", "value": 2, "unit": "pmol/min/mg protein"}]}
{"compound": "C[C@]12CC[C@@H]3c4ccc(O)c(O)c4CC[C@H]3[C@@H]1CC[C@@H]2O", "note": "[4-OH-E2, 4-hydroxyestradiol]", "values": [{"measurement": "rate of 3-sulfate formation in the absence of celecoxib", "setting": "human SULT2A1; 0.4 μM substrate", "value": 15, "unit": "pmol/min/mg protein"}]}
{"compound": "C[C@]12CC[C@@H]3c4ccc(O)cc4C=C[C@H]3[C@@H]1CC[C@@H]2O", "note": "[6D-E2, 6-dehydroestradiol]", "values": [{"measurement": "rate of 17-sulfate formation in the absence of celecoxib", "setting": "human SULT2A1; 0.4 μM substrate", "value": 2, "unit": "pmol/min/mg protein"}, {"measurement": "rate of 3-sulfate formation in the absence of celecoxib", "setting": "human SULT2A1; 0.4 μM substrate", "value": 51, "unit": "pmol/min/mg protein"}]}
{"compound": "C[C@]12CC=C3c4ccc(O)cc4CC[C@H]3[C@@H]1CC[C@@H]2O", "note": "[9D-E2, 9-dehydroestradiol]", "values": [{"measurement": "rate of 3-sulfate formation in the absence of celecoxib", "setting": "human SULT2A1; 0.4 μM substrate", "value": 14, "unit": "pmol/min/mg protein"}]}
{"compound": "C[C@]12CC[C@@H]3c4ccc(O)cc4CC[C@H]3[C@@H]1CC[C@@H]2O", "note": "[17β-E2, 17β-estradiol]", "values": [{"measurement": "17-sulfate produced relative to 3-sulfate in the absence of celecoxib", "setting": "human SULT2A1; 0.4 μM substrate, Figure 6G", "value": "around 76 times"}, {"measurement": "Product formed, 3-sulfate", "setting": "human SULT2A1; [2]", "value": 150, "unit": "pmol/min/mg protein"}, {"measurement": "Product formed, 17-sulfate", "setting": "human SULT2A1; [2]", "value": "Not detected"}, {"measurement": "Product formed, Total sulfates", "setting": "human SULT2A1; [2]", "value": 150, "unit": "pmol/min/mg protein"}, {"measurement": "Product formed, 3-sulfate", "setting": "human SULT2A1; [3]", "value": 306, "unit": "pmol/min/mg protein"}, {"measurement": "Product formed, 17-sulfate", "setting": "human SULT2A1; [3]", "value": "Not detected"}, {"measurement": "Product formed, Total sulfates", "setting": "human SULT2A1; [3]", "value": 306, "unit": "pmol/min/mg protein"}]}
{"compound": "C[C@]12CC[C@H]3C(=CCc4cc(O)ccc43)[C@@H]1CC[C@@H]2O", "note": "[17β-Eq, 17β-dihydroequilin]", "values": [{"measurement": "rate of 3-sulfate formation in the absence of celecoxib", "setting": "human SULT2A1; 0.4 μM substrate", "value": 46, "unit": "pmol/min/mg protein"}]}
{"compound": "C[C@]12CCc3c(ccc4cc(O)ccc34)[C@@H]1CC[C@@H]2O", "note": "[17β-Eqn, 17β-dihydroequilenin]", "values": [{"measurement": "rate of 17-sulfate formation in the absence of celecoxib", "setting": "human SULT2A1; 0.4 μM substrate", "value": 11.4, "unit": "pmol/min/mg protein"}, {"measurement": "rate of 3-sulfate formation in the absence of celecoxib", "setting": "human SULT2A1; 0.4 μM substrate", "value": 56, "unit": "pmol/min/mg protein"}]}
{"compound": "C[C@]12CC[C@H]3[C@@H](CC=C4C[C@@H](O)CC[C@@]43C)[C@@H]1CC[C@@H]2O", "note": "[AD, 5-androsten-3β,17β-diol]", "values": [{"measurement": "SULT2A1 enzyme activity toward the substrate", "setting": "human SULT2A1; 0.4 μM substrate", "value": "8–9 nmol sulfate/min/mg protein"}]}
{"compound": "C[C@]12CC[C@H](O)CC1=CC[C@@H]1[C@@H]2CC[C@]2(C)C(=O)CC[C@@H]12", "note": "[DHEA, dehydroepiandrosterone]", "values": [{"measurement": "SULT2A1 enzyme activity toward the substrate", "setting": "human SULT2A1; 0.4 μM substrate", "value": "8–9 nmol sulfate/min/mg protein"}]}
{"compound": "C[C@]12CC[C@H]3[C@@H](CCC4=CC(=O)CC[C@@]43C)[C@@H]1CC[C@H]2O", "note": "[Epi-T, epi-testosterone]", "values": [{"measurement": "SULT2A1 enzyme activity toward the substrate", "setting": "human SULT2A1; 0.4 μM substrate", "value": "8–9 nmol sulfate/min/mg protein"}, {"measurement": "rate of sulfonation of Epi-T relative to T", "setting": "human SULT2A1; control activities, 0.4 μM substrate", "value": 7, "unit": "times"}]}
{"compound": "Cc1ccc(-c2cc(C(F)(F)F)nn2-c2ccc(S(N)(=O)=O)cc2)cc1", "note": "[celecoxib]", "values": [{"measurement": "effect on sulfonation of E1", "setting": "human SULT2A1; 0–80 μM celecoxib, 0.4 μM E1, p > 0.05, ANOVA", "value": "not affected significantly"}, {"measurement": "celecoxib concentration at which 4-OH-E2 17-sulfate and 3-sulfate curves cross", "setting": "human SULT2A1; 0.4 μM 4-OH-E2, 20 μM PAPS", "value": "approximately 30 μM"}, {"measurement": "enhancement of total sulfate product formation from 6D-E2", "setting": "human SULT2A1; 50 μM celecoxib, 0.4 μM 6D-E2", "value": "over 8 fold"}, {"measurement": "increase of total product formation from 9D-E2", "setting": "human SULT2A1; 80 μM celecoxib, 0.4 μM 9D-E2", "value": 9.4, "unit": "times"}, {"measurement": "stimulation of 17β-Eqn–17-sulfate formation compared with absence of celecoxib", "setting": "human SULT2A1; 80 μM celecoxib, 0.4 μM 17β-Eqn", "value": 34, "unit": "fold"}, {"measurement": "celecoxib concentrations at which 17β-E2–3-S decreased", "setting": "human SULT2A1; 0.05, 0.2 and 0.4 μM 17β-E2", "value": "≥ 50", "unit": "µM"}, {"measurement": "celecoxib concentration at which stimulation of 17β-E2–17-S formation peaked", "setting": "human SULT2A1; 0.2 and 0.4 μM 17β-E2", "value": 50, "unit": "µM"}, {"measurement": "Product formed, 3-sulfate", "setting": "human SULT2A1; [4]", "value": 85, "unit": "pmol/min/mg protein"}, {"measurement": "Product formed, 17-sulfate", "setting": "human SULT2A1; [4]", "value": 199, "unit": "pmol/min/mg protein"}, {"measurement": "Product formed, Total sulfates", "setting": "human SULT2A1; [4]", "value": 284, "unit": "pmol/min/mg protein"}, {"measurement": "Product formed, 3-sulfate", "setting": "human SULT2A1; [5]", "value": 177, "unit": "pmol/min/mg protein"}, {"measurement": "Product formed, 17-sulfate", "setting": "human SULT2A1; [5]", "value": 387, "unit": "pmol/min/mg protein"}, {"measurement": "Product formed, Total sulfates", "setting": "human SULT2A1; [5]", "value": 564, "unit": "pmol/min/mg protein"}, {"measurement": "Product formed, 3-sulfate", "setting": "human SULT2A1; [6]", "value": 155, "unit": "pmol/min/mg protein"}, {"measurement": "Product formed, 17-sulfate", "setting": "human SULT2A1; [6]", "value": 432, "unit": "pmol/min/mg protein"}, {"measurement": "Product formed, Total sulfates", "setting": "human SULT2A1; [6]", "value": 587, "unit": "pmol/min/mg protein"}, {"measurement": "Product formed, 3-sulfate", "setting": "human SULT2A1; [7]", "value": 363, "unit": "pmol/min/mg protein"}, {"measurement": "Product formed, 17-sulfate", "setting": "human SULT2A1; [7]", "value": 1076, "unit": "pmol/min/mg protein"}, {"measurement": "Product formed, Total sulfates", "setting": "human SULT2A1; [7]", "value": 1439, "unit": "pmol/min/mg protein"}, {"measurement": "effect on sulfonation of DHEA or AD at low concentrations", "setting": "human SULT2A1; celecoxib 0–40 μM", "value": "did not affect"}, {"measurement": "effect on 17β-Eq-3-sulfate formation", "setting": "human SULT2A1; celecoxib range studied (0–80 μM), 0.4 μM 17β-Eq", "value": "No inhibition"}, {"measurement": "rate of 3-sulfate formation when inhibited by celecoxib (Figure 6G substrate)", "setting": "human SULT2A1; data not shown", "value": "< 1", "unit": "pmol/min/mg protein"}, {"measurement": "increase of total sulfonation of 6D-E2, 17β-Eqn and 9D-E2", "setting": "human SULT2A1; summary in discussion", "value": "over 8 fold"}, {"measurement": "effect on formation of 3Me-E2–17β-sulfate", "setting": "human SULT2A1; up to 80 μM celecoxib, 0.4 μM 3Me-E2, not saturated at 80 μM", "value": "stimulated the formation of 3Me-E2–17β-sulfate in a concentration dependent manner"}, {"measurement": "maximum liver concentration of celecoxib", "setting": "[1]", "value": 230, "unit": "µM"}]}
